Results from patent US9301999B2 (priority 2009, dated 2016).
“And” between values parts separate entries of the source, which are not always exact repeats. Equal entries are not always repeated. Where no end group is shown, it is not given here.

Experiments:
[1] = system: MC/9 mast cells; type: cell-based, murine; parameters: MCD10: concentration of peptide necessary to induce degranulation of 10% of mast cells: unit not given here; conditions: for EC50: read-out: MCD50: concentration of peptide necessary to induce degranulation of 50% of mast cells
[2] = system: anti-WNV IgG; type: in vivo, Female BALB/c mice; conditions: nasal, days 0, 7 and 21, WNV antigen 1 μg + 0.25 or 1.25 nmoles peptide; for Anti-WNV IgG titers in sera on day 28, versus antigen alone: ANOVA p<0.05; for anti-WNV IgG titers, difference versus mice that received MP7: serum day 28
[3] = system: anti-rPA IgG; parameters: species or system female C3H mice; conditions: mouse, in vivo

| Substance | MCD10: concentration of peptide necessary to induce degranulation of 10% of mast cells [1] | % Mast Cell Degranulation [1] | other results |
| --- | --- | --- | --- |
| I N L K A L A A L A K K M L (INLKALAALAKKML) [MP-13M] | 64.54 |  |  |
| I N L K A L A A L A K I I L [MP-12I-Ac-NH2] |  | 87.97% and 67.63% and 46.09% |  |
| I N L K A L A A L A K A L L [MP7-Ac] |  | 0.31% |  |
| INLKALAALAKALLINLKALAALAKALL-NH2 [MP7-2X] |  |  | % MC/9 Degranulation [1]: 33.60% and 47.80% |
| INLKALAALAKWIL [MP-12W, I N L K A L A A L A K W I L] | 1.47 |  | EC50 [1]: 4.71 µM; Anti-WNV IgG titers in sera on day 28, versus antigen alone [2]: significantly greater; anti-WNV IgG titers, difference versus mice that received MP7 [2]: no significant difference |
| INLKALAALAKYIL [MP-12Y, I N L K A L A A L A K Y I L] | 4.09 |  | EC50 [1]: 11.1 µM |
| I N L K A L A A L A K S I L (INLKALAALAKSIL) [MP-12S] | 22.50 |  |  |
| INLKALAALAKIIL [MP-12I, I N L K A L A A L A K I I L] | 2.32 |  | EC50 [1]: 12 µM; Anti-WNV IgG titers in sera on day 28, versus antigen alone [2]: significantly greater; anti-WNV IgG titers, difference versus mice that received MP7 [2]: no significant difference |
| I N L K A L A A L A K A L L [MP7-Ac-NH2] |  | 54.46% and 47.52% and 29.89% |  |
| I N L K A L A A L A K W I L [MP-12W-NH2] |  | 79.87% and 85.74% and 80.05% |  |
| I N L K A L A A L A K Q I L (INLKALAALAKQIL) [MP-12Q] | 18.73 |  |  |
| INLKALAALAKLIL [MP-12L, I N L K A L A A L A K L I L] | 2.30 |  | EC50 [1]: 5.19 µM; Anti-WNV IgG titers in sera on day 28, versus antigen alone [2]: significantly greater; anti-WNV IgG titers, difference versus mice that received MP7 [2]: no significant difference |
| I N L K A L A A L A K I I L [MP-12I-Ac] |  | 0% |  |
| WQWRWWWWWWRWWW-NH2 [Duke Mast I] |  |  | Tukey's Multiple Comparison Test versus CT, Significant? P < 0.05? [3]: No; Tukey's Multiple Comparison Test versus rPA, Significant? P < 0.05? [3]: Yes; adjuvant activity: serum anti-rPA IgG titers compared to rPA alone [3]: statistically significant adjuvant activity; % MC/9 Degranulation [1]: 30.50% |
| I N L K A L A A L A K W I L [MP-12W-OH] |  | 23.83% |  |
| I N L K A L A A L A K I I L [MP-12I-OH] |  | 0% |  |
| INLKALAALAKAIL [MP-12A, I N L K A L A A L A K A I L] | 8.88 |  | EC50 [1]: 25.3 µM |
| I N L K A L A A L A K I I L [MP-12I-NH2] |  | 81.66% and 70.13% and 49.9% |  |
| I N L K A F A A L A K K I L (INLKAFAALAKKIL) [MP-6F] | 58.40 |  |  |
| I N L K A L A A L A K H I L (INLKALAALAKHIL) [MP-12H] | 23.86 |  |  |
| INLKALAALAKCIL [MP-12C, I N L K A L A A L A K C I L] | 5.33 |  | EC50 [1]: 23.8 µM |
| INLKALAALAKFIL [MP-12F, I N L K A L A A L A K F I L] | 4.39 |  | EC50 [1]: 9.22 µM; Anti-WNV IgG titers in sera on day 28, versus antigen alone [2]: significantly greater; anti-WNV IgG titers, difference versus mice that received MP7 [2]: no significant difference |
| I N L K A L A A L A K K F L (INLKALAALAKKFL) [MP-13F] | 24.37 |  |  |
| I N L K A L A A L A K F I L [MP-12F-Ac] |  | 2.75% |  |

| Substance | MCD10: concentration of peptide necessary to induce degranulation of 10% of mast cells [1] | % Mast Cell Degranulation [1] | other results |
| --- | --- | --- | --- |
| I N L K A L A A L A K L I L [MP-12L-Ac] |  | 1.07% |  |
| INLKALAALAKALLGGGINLKALAALAKALL-NH2 [MP7-2XB] |  |  | % MC/9 Degranulation [1]: 40.49% and 56.90% |
| INLKALAALAKMIL [MP-12M, I N L K A L A A L A K M I L] | 2.96 |  | EC50 [1]: 11.3 µM |
| I N L K A L A A L A K L I L [MP-12L-Ac-NH2] |  | 80.35% and 76.49% and 58.57% |  |
| I N L K A I A A L A K K I L (INLKAIAALAKKIL) [MP-6I] | 61.14 |  |  |
| I N L K A L A A L A K F I L [MP-12F-Ac-NH2] |  | 87.65% and 83.36% and 67.41% |  |
| I N L K A L A A L A K L I L [MP-12L-OH] |  | 21.36% |  |
| I N L K A L A A L A K E I L (INLKALAALAKEIL) [MP-12E] | 40.32 |  |  |
| I N L K A W A A L A K K I L (INLKAWAALAKKIL) [MP-6W] | 24.99 |  |  |
| I N L K A L A A L A K N I L (INLKALAALAKNIL) [MP-12N] | 31.86 |  |  |
| I N L K A L A A L A K G I L (INLKALAALAKGIL) [MP-12G] | 68.76 |  |  |
| I N L K A L A A L A K F I L [MP-12F-OH] |  | 38.07% |  |
| WRWRWWWWWWRRWW-NH2 [Duke Mast F] |  |  | Tukey's Multiple Comparison Test versus CT, Significant? P < 0.05? [3]: No; Tukey's Multiple Comparison Test versus Duke Mast I NH2, Significant? P < 0.05? [3]: No; Tukey's Multiple Comparison Test versus rPA, Significant? P < 0.05? [3]: Yes; adjuvant activity: serum anti-rPA IgG titers compared to rPA alone [3]: statistically significant adjuvant activity; % MC/9 Degranulation [1]: 27.80% and 40.07% |
| INLKALAALAKVIL [MP-12V, I N L K A L A A L A K V I L] | 14.87 |  | EC50 [1]: 41.2 µM |
| INLKALAALAKALLSGGRGGINLKALAALAKALL-NH2 [MP7-2XA] |  |  | % MC/9 Degranulation [1]: 50.20% and 78.40% |
| I N L K A L A A L A K K L L (INLKALAALAKKLL) [MP-13L] | 22.46 |  |  |
| I N L K A L A A L A K K C L (INLKALAALAKKCL) [MP-13C] | 17.27 |  |  |
| I N L K A L A A L A K R I L (INLKALAALAKRIL) [MP-12R] | 23.29 |  |  |
| WQWRWWWWWWRRWW-NH2 [Duke Mast C] |  |  | Tukey's Multiple Comparison Test versus CT, Significant? P < 0.05? [3]: No; Tukey's Multiple Comparison Test versus Duke Mast F NH2, Significant? P < 0.05? [3]: No; Tukey's Multiple Comparison Test versus Duke Mast I NH2, Significant? P < 0.05? [3]: No; Tukey's Multiple Comparison Test versus rPA, Significant? P < 0.05? [3]: Yes; adjuvant activity: serum anti-rPA IgG titers compared to rPA alone [3]: statistically significant adjuvant activity; % MC/9 Degranulation [1]: 47.90% |
| I N L K A L A A L A K F I L [MP-12F-NH2] |  | 95.24% and 87.57% and 70.01% |  |
| I N L K A L A A L A K L I L [MP-12L-NH2] |  | 83.36% and 67.37% and 51.29% |  |
| I N L K A L A A L A K K W L (INLKALAALAKKWL) [MP-13W] | 22.76 |  |  |
| I N L K A L A A L A K W I L [MP-12W-Ac] |  | 38.76% |  |
